Test results published in patent publication US20240246964A1 (Arbutus Biopharma Corporation, priority 2021, published 2024).
pEC50, pIC50: −log10 of the molar value.

Legend:
[1] = target: PD-L1 His protein / PD-1 Fc protein (Homo sapiens (Human), UniProt Q9NZQ7); assay: HTRF Assay (PD-1/PD-L1 interaction); format: binding; conditions: PD-L1 His 6 nM, PD-1 Fc 6 nM
human PD-L1 = human PD-L1 (Homo sapiens (Human), UniProt Q9NZQ7); assay: T cell activation luciferase reporter cell culture system (T Cell Activation Assay); format: cell-based; conditions: luciferase reporter assay; PD-L1 aAPC/CHO-K1 cells with PD-1 effector Jurkat T cells
Chain of human PD-L1 (Q9NZQ7 19-290): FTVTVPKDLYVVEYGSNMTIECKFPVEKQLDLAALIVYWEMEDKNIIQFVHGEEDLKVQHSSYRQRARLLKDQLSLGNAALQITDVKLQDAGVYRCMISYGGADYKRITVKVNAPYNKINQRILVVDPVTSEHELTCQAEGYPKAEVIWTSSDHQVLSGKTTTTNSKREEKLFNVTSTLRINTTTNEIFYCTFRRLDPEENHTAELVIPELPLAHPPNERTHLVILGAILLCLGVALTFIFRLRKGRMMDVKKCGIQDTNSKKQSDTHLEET

Chain of PD-L1 His protein / PD-1 Fc protein (Q9NZQ7 19-238): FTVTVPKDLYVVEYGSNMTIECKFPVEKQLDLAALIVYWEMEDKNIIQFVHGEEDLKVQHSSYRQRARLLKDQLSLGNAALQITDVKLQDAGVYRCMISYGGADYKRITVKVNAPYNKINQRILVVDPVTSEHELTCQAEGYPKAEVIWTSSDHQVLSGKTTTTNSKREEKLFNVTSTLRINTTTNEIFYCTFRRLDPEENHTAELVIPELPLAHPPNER

Row | SMILES | pIC50 [1] | pEC50 (human PD-L1)
1 | CNCc1ccc(-c2cccc(-c3ccnc(-c4ccc(CNC[C@@H](O)CC(=O)OC(C)C)c(OC)c4)c3Cl)c2Cl)nc1OC [Example 280, Isopropyl (S)-4-((4-(3-chloro-4-(2-chloro-3-(6-methoxy-5-((methylamino)methyl)pyridin-2-yl)phenyl)pyridin-2-yl)-2-methoxybenzyl)amino)-3-hydroxybutanoate] | 7.54 | 6.95
2 | CNCc1ccc(-c2cccc(-c3ccnc(-c4ccc(CN5CC6(CC(C(=O)OC(C)C)C6)C5)c(OC)c4)c3Cl)c2Cl)nc1OC [Example 281, Isopropyl 2-(4-(3-chloro-4-(2-chloro-3-(6-methoxy-5-((methylamino)methyl)pyridin-2-yl)phenyl)pyridin-2-yl)-2-methoxybenzyl)-2-azaspiro[3.3]heptane-6-carboxylate] | 7.96 | 6.81
3 | COc1nc(-c2cccc(-c3ccnc(-c4ccc(CNC5CCN(C(C)=O)CC5)c(F)c4)c3Cl)c2Cl)ccc1CNC1CCN(C(C)=O)CC1 [Example 282, 1-(4-(((6-(3-(2-(4-(((1-Acetylpiperidin-4-yl)amino)methyl)-3-fluorophenyl)-3-chloropyridin-4-yl)-2-chlorophenyl)-2-methoxypyridin-3-yl)methyl)amino)piperidin-1-yl)ethan-1-one] | 8.81 | 7.07
4 | CNCc1ccc(-c2nccc(-c3cccc(-c4ccc(CNC)c(OC)n4)c3Cl)c2Cl)cc1F [Example 283, 1-(6-(2-Chloro-3-(3-chloro-2-(3-fluoro-4-((methylamino)methyl)phenyl)pyridin-4-yl)phenyl)-2-methoxypyridin-3-yl)-N-methylmethanamine] | 8.40 | 7.44
5 | COc1nc(-c2cccc(-c3ccnc(-c4ccc(CN5CC6(CNC(=O)C6)C5)c(F)c4)c3Cl)c2Cl)ccc1CN1CC2(CNC(=O)C2)C1 [Example 284, 2-((6-(2-Chloro-3-(3-chloro-2-(3-fluoro-4-((7-oxo-2,6-diazaspiro[3.4]octan-2-yl)methyl)phenyl)pyridin-4-yl)phenyl)-2-methoxypyridin-3-yl)methyl)-2,6-diazaspiro[3.4]octan-7-one] | 8.55 | 7.20
6 | COc1cc(-c2nccc(-c3cccc(-c4ccc(CNC5CCN(C(C)=O)CC5)c(OC)n4)c3Cl)c2Cl)cc(F)c1CNC1CCN(C(C)=O)CC1 [Example 285, 1-(4-(((6-(3-(2-(4-(((1-Acetylpiperidin-4-yl)amino)methyl)-3-fluoro-5-methoxyphenyl)-3-chloropyridin-4-yl)-2-chlorophenyl)-2-methoxypyridin-3-yl)methyl)amino)piperidin-1-yl)ethan-1-one] | 9.15 | 7.85
7 | CNCc1ccc(-c2cccc(-c3ccnc(-c4cc(F)c(CNC)c(OC)c4)c3Cl)c2Cl)nc1OC [Example 286, 1-(6-(2-Chloro-3-(3-chloro-2-(3-fluoro-5-methoxy-4-((methylamino)methyl)phenyl)pyridin-4-yl)phenyl)-2-methoxypyridin-3-yl)-N-methylmethanamine] | 8.29 | 7.81
8 | COc1cc(-c2nccc(-c3cccc(-c4ccc(CN5CC6(CNC(=O)C6)C5)c(OC)n4)c3Cl)c2Cl)cc(F)c1CN1CC2(CNC(=O)C2)C1 [Example 287, 2-((6-(2-Chloro-3-(3-chloro-2-(3-fluoro-5-methoxy-4-((7-oxo-2,6-diazaspiro[3.4]octan-2-yl)methyl)phenyl)pyridin-4-yl)phenyl)-2-methoxypyridin-3-yl)methyl)-2,6-diazaspiro[3.4]octan-7-one] | 8.33 | 7.78
9 | COc1nc(-c2cccc(-c3ccnc(-c4ccc5c(CN6CC7(CNC(=O)C7)C6)nn(C)c5c4)c3Cl)c2Cl)ccc1CNC[C@@H]1CCC(=O)N1 [Example 288, (S)-2-((6-(3-Chloro-4-(2-chloro-3-(6-methoxy-5-((((5-oxopyrrolidin-2-yl)methyl)amino)methyl)pyridin-2-yl)phenyl)pyridin-2-yl)-1-methyl-1H-indazol-3-yl)methyl)-2,6-diazaspiro[3.4]octan-7-one] | 8.63 | 7.28
10 | COc1nc(-c2cccc(-c3ccnc(-c4cc(Cl)c5c(c4)CCN(CC4CCN(C(C)=O)CC4)C5)c3Cl)c2Cl)ccc1CNC[C@@H]1CCC(=O)N1 [Example 289, (S)-5-((((6-(3-(2-(2-((1-Acetylpiperidin-4-yl)methyl)-8-chloro-1,2,3,4-tetrahydroisoquinolin-6-yl)-3-chloropyridin-4-yl)-2-chlorophenyl)-2-methoxypyridin-3-yl)methyl)amino)methyl)pyrrolidin-2-one] | 8.53 | 7.06
11 | COc1cc(-c2nccc(-c3cccc(-c4cc5c(cn4)C(=O)N(CCNC[C@@H]4CCC(=O)N4)C5)c3Cl)c2Cl)ccc1CNC[C@@H]1CCC(=O)N1 [Example 290, 6-(2-Chloro-3-(3-chloro-2-(3-methoxy-4-(((((S)-5-oxopyrrolidin-2-yl)methyl)amino)methyl)phenyl)pyridin-4-yl)phenyl)-2-(2-((((S)-5-oxopyrrolidin-2-yl)methyl)amino)ethyl)-1,2-dihydro-3H-pyrrolo[3,4-c]pyridin-3-one] | 8.52 | 6.26
12 | COc1cc(-c2nccc(-c3cccc(-c4cn5cc(CNC[C@@H]6CCC(=O)N6)nc5cn4)c3Cl)c2Cl)ccc1CNC[C@@H]1CCC(=O)N1 [Example 291, (S)-5-((((6-(2-Chloro-3-(3-chloro-2-(3-methoxy-4-(((((S)-5-oxopyrrolidin-2-yl)methyl)amino)methyl)phenyl)pyridin-4-yl)phenyl)imidazo[1,2-a]pyrazin-2-yl)methyl)amino)methyl)pyrrolidin-2-one] | 8.85 | 6.43
13 | COc1cc(-c2nccc(-c3cccc4c3CC[C@@H]4Oc3nc(OC)c(CN4CC5(CNC(=O)C5)C4)cc3C(F)(F)F)c2Cl)ccc1CN1CC2(CNC(=O)C2)C1 [Example 292, (S)-2-(4-(3-chloro-4-(1-((6-methoxy-5-((7-oxo-2,6-diazaspiro[3.4]octan-2-yl)methyl)-3-(trifluoromethyl)pyridin-2-yl)oxy)-2,3-dihydro-1H-inden-4-yl)pyridin-2-yl)-2-methoxybenzyl)-2,6-diazaspiro[3.4]octan-7-one] | 8.36 | 6.41
14 | COc1cc(-c2nccc(-c3cccc(-c4ccc(CNC[C@H](C)O)c(OC)n4)c3Cl)c2Cl)cc2c1CN(CCC(=O)O)CC2 [Example 293, (S)-3-(6-(3-Chloro-4-(2-chloro-3-(5-(((2-hydroxypropyl)amino)methyl)-6-methoxypyridin-2-yl)phenyl)pyridin-2-yl)-8-methoxy-3,4-dihydroisoquinolin-2(1H)-yl)propanoic acid] | 9.57 | 7.22
15 | COc1cc(-c2nccc(-c3cccc(-c4ccc(CN5CC6(CNC(=O)C6)C5)c(OC)n4)c3Cl)c2Cl)cc2c1CN(CCC(=O)O)CC2 [Example 294, 3-(6-(3-Chloro-4-(2-chloro-3-(6-methoxy-5-((7-oxo-2,6-diazaspiro[3.4]octan-2-yl)methyl)pyridin-2-yl)phenyl)pyridin-2-yl)-8-methoxy-3,4-dihydroisoquinolin-2(1H)-yl)propanoic acid] | 9.62 | 7.13
16 | COC(=O)C1(CN2CCc3cc(-c4nccc(-c5cccc(-c6ccc(CN7CC8(CNC(=O)C8)C7)c(OC)n6)c5Cl)c4Cl)cc(OC)c3C2)CC1 [Example 295, Methyl 1-((6-(3-chloro-4-(2-chloro-3-(6-methoxy-5-((7-oxo-2,6-diazaspiro [3.4]octan-2-yl)methyl)pyridin-2-yl)phenyl)pyridin-2-yl)-8-methoxy-3,4-dihydroisoquinolin-2(1H)-yl)methyl)cyclopropane-1-carboxylate] | 8.68 | 6.63
17 | COc1cc(-c2nccc(-c3cccc(-c4ccc(CN5CC6(CNC(=O)C6)C5)c(OC)n4)c3Cl)c2Cl)cc2c1CN(CC(O)CF)CC2 (stereo not drawn) [Example 296, 2-((6-(2-Chloro-3-(3-chloro-2-(2-(3-fluoro-2-hydroxypropyl)-8-methoxy-1,2,3,4-tetrahydroisoquinolin-6-yl)pyridin-4-yl)phenyl)-2-methoxypyridin-3-yl)methyl)-2,6-diazaspiro[3.4]octan-7-one] | 8.48 | 7.30
18 | COc1cc(-c2nccc(-c3cccc(-c4ccc(CN5CC6(CNC(=O)C6)C5)c(OC)n4)c3Cl)c2Cl)cc2c1CN(CC1(C(=O)O)CC1)CC2 [Example 297, 1-((6-(3-Chloro-4-(2-chloro-3-(6-methoxy-5-((7-oxo-2,6-diazaspiro[3.4]octan-2-yl)methyl)pyridin-2-yl)phenyl)pyridin-2-yl)-8-methoxy-3,4-dihydroisoquinolin-2(1H)-yl)methyl)cyclopropane-1-carboxylic acid] | 9.54 | 6.37
19 | COc1cc(-c2nccc(-c3cccc(-c4ccc(CNC5CCOCC5)c(OC)n4)c3Cl)c2Cl)ccc1CNC1CCOCC1 [Example 298, N-((6-(2-chloro-3-(3-chloro-2-(3-methoxy-4-(((tetrahydro-2H-pyran-4-yl)amino)methyl)phenyl)pyridin-4-yl)phenyl)-2-methoxypyridin-3-yl)methyl)tetrahydro-2H-pyran-4-amine] | 8.75 | 7.84
20 | COc1cc(-c2nccc(-c3cccc(-c4ccc(CNC5CCS(=O)(=O)CC5)c(OC)n4)c3Cl)c2Cl)ccc1CNC1CCS(=O)(=O)CC1 [Example 299, 4-(((6-(2-Chloro-3-(3-chloro-2-(4-(((1,1-dioxidotetrahydro-2H-thiopyran-4-yl)amino)methyl)-3-methoxyphenyl)pyridin-4-yl)phenyl)-2-methoxypyridin-3-yl)methyl)amino)tetrahydro-2H-thiopyran 1,1-dioxide] | 9.10 | 7.64
21 | COc1cc(-c2nccc(-c3cccc(-c4ccc(CNC5CN(C(C)=O)C5)c(OC)n4)c3Cl)c2Cl)ccc1CNC1CN(C(C)=O)C1 [Example 300, 1-(3-(((6-(3-(2-(4-(((1-Acetylazetidin-3-yl)amino)methyl)-3-methoxyphenyl)-3-chloropyridin-4-yl)-2-chlorophenyl)-2-methoxypyridin-3-yl)methyl)amino)azetidin-1-yl)ethan-1-one] | 9.06 | 6.55
